# Where “and” joins values, the source holds several entries; their conditions need not be identical. Identical values can stand only once.
# Test system: custom murine 40-gene Precision Profile for Rheumatoid Arthritis, whole blood
# Experiment: Collagen Induced Arthritis (CIA) model, whole blood gene expression by QPCR, vehicle or dexamethasone treatment
# Assay type: in vivo, male DBA/1 mice
# Procedure: Whole blood gene expression changes were evaluated in vehicle control and drug-treated murine subjects across two murine models of arthritis according to the following arthritis models:
# KRN Transgenic Mouse (K/B×N): K/B×N serum from transgenic mouse used to induce arthritis in female BALB/c mice (n=54). Collagen Induced Arthritis (CIA): Bovine type II collagen used to induce arthritis in male DBA/1 mice (n=54).
# In addition, naïve, untreated animal groups at baseline and terminal day were included to control for potential age-related changes in gene expression over the extended study periods. Animal groups, time-points, and treatment schedules are summarized in Tables 20A and 20B, respectively.
# Whole blood samples from animals were collected by retro-orbital bleed at selected time-points in accordance with the arthritis study schemas described in […], and transferred into sample collection tubes containing a 1.5× lysis solution and RPMI. Samples were processed into total RNA and cDNA. […] It was anticipated from these murine models would provide a better understanding of the relevant molecular response of arthritis induction and their potential correlation to the human disease condition.
# Normal murine subject reference values (represented as normalized Ct or ΔCt values) were established for male DBA/1 mice (n=6 for the CIA study arm) and female BALB/c mice (n=6 for the KRN study arm). In both arms of the study, gene expression response of normal (naïve, non-immunized and untreated) murine subjects were evaluated in groups of 6 each at day 0 and day 60 for the CIA study arm, and at day 0 and day 21 for the KRN study arm (see Tables 20A and 20B).
# Gene expression responses for this arthritis-induced murine model were evaluated for untreated mice at day 24 and vehicle-treated mice at days 33, 42, and 60 to characterize disease progression.
# [1] = CIA Day 42 Treated, group Average
# [2] = CIA Day 42 Treated, group Average, whole blood
# [3] = CIA Day 42 Treated, individual mice
# [4] = CIA Day 42 Treated, individual mice, whole blood
# [5] = CIA Day 60 Treated, group Average
# [6] = CIA Day 60 Treated, group Average, whole blood
# [7] = CIA Day 60 Treated, individual mice
# [8] = CIA Day 60 Treated, individual mice, whole blood
smiles,measurement,setting,value
C[C@@H]1C[C@H]2[C@@H]3CCC4=CC(=O)C=C[C@]4(C)[C@@]3(F)[C@@H](O)C[C@]2(C)[C@@]1(O)C(=O)CO [Dexamethasone],"CD19_M Normalized CT Value (Delta CT), Average",[1],17.41
same,"CD32_M Normalized CT Value (Delta CT), Average",[1],19.18
same,"CD86_M Normalized CT Value (Delta CT), Average",[1],22.86
same,"CSPG2_M Normalized CT Value (Delta CT), Average",[1],18.40
same,"F3_M Normalized CT Value (Delta CT), Average",[1],24.19
same,"HMOX1—M Normalized CT Value (Delta CT), Average",[1],17.42
same,"HSPA1A—M Normalized CT Value (Delta CT), Average",[1],22.06
same,"ICAM1—M Normalized CT Value (Delta CT), Average",[1],19.40
same,"IFI16_M Normalized CT Value (Delta CT), Average",[1],18.56
same,"IL1A_M Normalized CT Value (Delta CT), Average",[1],24.26
same,"IL1B_M Normalized CT Value (Delta CT), Average",[1],14.10
same,"IL10_M Normalized CT Value (Delta CT), Average",[1],25.70
same,Normalized CT (Delta CT) IL1RAP_M,[2],18.00
same,Normalized CT (Delta CT) IL1RN—M,[2],17.54
same,Normalized CT (Delta CT) IL6_M,[2],24.59
same,Normalized CT (Delta CT) JUN_M,[2],20.13
same,Normalized CT (Delta CT) MEF2C—M,[2],19.65
same,Normalized CT (Delta CT) NFKB1—M,[2],17.40
same,Normalized CT (Delta CT) PADI4—M,[2],17.97
same,Normalized CT (Delta CT) PLA2G7—M,[2],14.89
same,ABCA1_M Normalized CT Value (Delta CT),[3],19.25 and 19.03 and 20.65 and 19.18 and 18.65 and 19.31
same,APAF1_M Normalized CT Value (Delta CT),[3],20.34 and 19.23 and 20.02 and 18.89 and 19.10 and 20.01
same,ARG2_M Normalized CT Value (Delta CT),[3],18.59 and 17.70 and 18.13 and 17.87 and 17.07 and 18.04
same,CASP1_M Normalized CT Value (Delta CT),[3],19.07 and 17.95 and 20.08 and 18.16 and 18.00 and 18.03
same,CASP3_M Normalized CT Value (Delta CT),[3],18.26 and 18.13 and 18.40 and 18.45 and 17.48 and 17.70
same,CCR3_M Normalized CT Value (Delta CT),[3],19.92 and 18.94 and 19.77 and 19.05 and 19.94
same,CD8A_M Normalized CT Value (Delta CT),[3],19.05 and 19.19 and 19.47 (2×) and 19.54 and 21.24
same,CD14_M Normalized CT Value (Delta CT),[3],18.22 and 17.59 and 18.17 and 17.46 and 16.46 and 17.49
same,CD19_M Normalized CT Value (Delta CT),[3],17.83 and 18.59 and 17.22
same,CD32_M Normalized CT Value (Delta CT),[3],19.54 and 18.75 and 20.05 and 19.32 and 18.31 and 19.12
same,CD86_M Normalized CT Value (Delta CT),[3],22.76 and 21.99 and 24.40 and 22.29 and 22.95 and 22.75
same,CSPG2_M Normalized CT Value (Delta CT),[3],17.53 and 18.70 and 18.64 and 18.36 and 19.59 and 17.59
same,F3_M Normalized CT Value (Delta CT),[3],21.92 and 24.08 and 25.50 and 24.56 and 23.94 and 25.11
same,HMOX1—M Normalized CT Value (Delta CT),[3],15.87 and 17.25 and 18.49 and 17.66 and 17.84 and 17.40
same,HSPA1A—M Normalized CT Value (Delta CT),[3],21.34 and 22.12 and 22.63 and 20.82 and 23.83 and 21.63
same,ICAM1—M Normalized CT Value (Delta CT),[3],18.58 and 19.08 and 19.89 and 19.37 and 20.27 and 19.24
same,IFI16_M Normalized CT Value (Delta CT),[3],17.87 and 17.97 and 18.60 and 18.06 and 20.80 and 18.04
same,IL1A_M Normalized CT Value (Delta CT),[3],24.26
same,IL1B_M Normalized CT Value (Delta CT),[3],13.49 and 14.12 and 14.22 and 14.25 and 14.38 and 14.15
same,IL10_M Normalized CT Value (Delta CT),[3],25.44 (2×) and 25.71 and 25.64 and 25.84 and 26.13
same,Normalized CT (Delta CT) IL1RAP_M,[4],17.46 and 17.94 and 18.31 and 18.38 and 17.99 and 17.91
same,Normalized CT (Delta CT) IL1RN—M,[4],16.89 and 17.57 and 17.94 and 17.76 and 17.56 and 17.53
same,Normalized CT (Delta CT) IL6_M,[4],24.11 and 25.01 and 23.38 and 25.34 and 25.09
same,Normalized CT (Delta CT) JUN_M,[4],19.54 and 19.51 and 20.43 and 19.81 and 21.67 and 19.83
same,Normalized CT (Delta CT) MEF2C—M,[4],19.72 and 19.12 and 19.89 and 19.47 and 20.04 and 19.64
same,Normalized CT (Delta CT) NFKB1—M,[4],17.25 and 16.83 and 17.27 and 16.97 and 18.81 and 17.26
same,Normalized CT (Delta CT) PADI4—M,[4],17.57 and 18.02 and 17.98 (2×) and 18.35 and 17.91
same,Normalized CT (Delta CT) PLA2G7—M,[4],14.60 and 14.83 and 15.02 and 14.96 and 15.09 and 14.82
same,"ABCA1_M Normalized CT Value (Delta CT), Average",[5],18.01
same,"APAF1_M Normalized CT Value (Delta CT), Average",[5],18.94
same,"ARG2_M Normalized CT Value (Delta CT), Average",[5],17.62
same,"CASP1_M Normalized CT Value (Delta CT), Average",[5],18.09
same,"CASP3_M Normalized CT Value (Delta CT), Average",[5],17.44
same,"CCR3_M Normalized CT Value (Delta CT), Average",[5],20.02
same,"CD14_M Normalized CT Value (Delta CT), Average",[5],17.08
same,"CD32_M Normalized CT Value (Delta CT), Average",[5],18.46
same,"CD86_M Normalized CT Value (Delta CT), Average",[5],22.22
same,Normalized CT (Delta CT) IL1RAP_M,[6],18.09
same,Normalized CT (Delta CT) IL1RN—M,[6],17.39
same,Normalized CT (Delta CT) IL6_M,[6],24.58
same,Normalized CT (Delta CT) JUN_M,[6],19.44
same,Normalized CT (Delta CT) MEF2C—M,[6],19.42
same,Normalized CT (Delta CT) NFKB1—M,[6],16.65
same,Normalized CT (Delta CT) PADI4—M,[6],18.36
same,Normalized CT (Delta CT) PLA2G7—M,[6],14.66
same,ABCA1_M Normalized CT Value (Delta CT),[7],18.15 and 17.43 and 18.02 and 18.03 and 18.50 and 17.95
same,APAF1_M Normalized CT Value (Delta CT),[7],18.90 and 18.40 and 19.28 and 18.97 and 19.36 and 18.75
same,ARG2_M Normalized CT Value (Delta CT),[7],17.69 and 17.21 and 17.86 and 17.73 and 18.48 and 16.78
same,CASP1_M Normalized CT Value (Delta CT),[7],17.78 and 17.53 and 18.19 and 18.75 and 18.66 and 17.61
same,CASP3_M Normalized CT Value (Delta CT),[7],17.72 and 17.06 and 17.22 and 17.97 and 17.46 and 17.18
same,CCR3_M Normalized CT Value (Delta CT),[7],20.33 and 18.57 and 20.17 and 20.39 and 21.29 and 19.38
same,CD14_M Normalized CT Value (Delta CT),[7],17.31 and 16.84 (2×) and 17.24 and 17.32 and 16.92
same,CD32_M Normalized CT Value (Delta CT),[7],18.41 and 17.86 and 18.35 and 18.90 and 18.54 and 18.72
same,CD86_M Normalized CT Value (Delta CT),[7],22.26 and 21.38 and 22.48 and 22.41 and 22.40 and 22.37
same,Normalized CT (Delta CT) IL1RAP_M,[8],18.11 and 18.37 and 18.06 and 18.23 and 18.26 and 17.51
same,Normalized CT (Delta CT) IL1RN—M,[8],17.45 and 17.37 and 17.66 and 17.72 and 17.62 and 16.51
same,Normalized CT (Delta CT) IL6_M,[8],25.14 and 24.12 and 24.79 and 25.54 and 25.20 and 22.67
same,Normalized CT (Delta CT) JUN_M,[8],19.63 and 19.39 and 19.44 (2×) and 19.07 and 19.67
same,Normalized CT (Delta CT) MEF2C—M,[8],19.42 and 19.06 and 19.35 and 19.73 and 19.55 and 19.41
same,Normalized CT (Delta CT) NFKB1—M,[8],16.72 and 16.41 and 16.30 and 16.95 and 16.80 and 16.73
same,Normalized CT (Delta CT) PADI4—M,[8],18.90 and 18.59 and 18.29 and 18.10 and 18.41 and 17.84
same,Normalized CT (Delta CT) PLA2G7—M,[8],14.78 and 14.34 and 14.76 and 14.77 and 14.96 and 14.35
same,"Normalized CT (Delta CT), column 9, gene sub-head of this block not shown",[8],24.31
